Test results: US20180271847A1, “TREATMENT OF ACUTE TRAUMATIC INJURY” (priority 2015, published 2018)

System: sciatic nerve crush
Assay: Electron microscopy of sciatic nerve after crush injury with local 4-AP PLGA films
Type: in vivo
From the text: A comparison of the axonal area of randomly chosen individual axons of vehicle treated and 4-AP treated mice (n=4 for each experimental group; 40 axons analyzed per mouse) is shown. […] (**: p<0.01; ANOVA).
In the experiment below, mice received crush injuries to the sciatic nerve and then a sustained release formulation of 4-AP in a PLGA formulation (4-AP films) was applied locally at the site of injury. At the time that nerve conduction velocity began to recover, nerves were isolated and studied by electron microscopy. […] In uninjured myelinated axons, the average area of a myelinated axon (excluding the myelin) was 11.2+/−1.3 μm^2. In injured nerves treated with PLGA film only, the average area of myelinated axons decreased to 5.7+/−0.2 μm^2 (FIG. 9A). In nerves treated with 4-AP-containing films, the average area of myelinated axons was 6.7+/−0.4 μm^2 (p<0.05 versus mice treated only with film). In addition, the proportion of axons with areas above the average value for uninjured nerves was 5+/−3% in injured nerves treated with vehicle alone but increased to 15+/−2% in nerves treated with 4-AP containing films (p<0.05).
On day 21 after injury, the average thickness of the myelin within the injured area was 0.53+/−0.03 μm but was 0.95+/−0.14 μm with localized 4-AP administration (p<0.01), as compared with an average myelin thickness in uninjured nerves of 1.26+/−0.08 μm. […] The myelin area was also measured (FIG. 9C, D) and it was determined that the average cross-sectional area of myelin per myelinated large axon in uninjured nerve was 14.8+/−1.7 μm^2, 4.9+/−0.3 μm^2 in injured nerve, and was restored to 10.1+/−0.7 μm^2 with localized 4-AP administration (p<0.01). In 4-AP treated mice, 21.2+/−9.3% of axons had myelin areas that were above the average for uninjured nerve, while this value in vehicle-treated mice was only 1.9+/−1.4%.
The benefits of treatment were also observed by analysis of the ratio of the area of the axon to the area of the axon plus associated myelin. This g^area ratio, a variant of the usually employed g-ratio, was calculated due to the decreased circularity in injured nerve. […] However, with local 4-AP treatment, the g^area-ratio was in the normal range of 0.43+/−0.09 (p<0.01) (FIG. 9D).
The number of total myelinated axons per TEM grid examined (2310 μm^2) was 82+/−5 axons in undamaged nerve, as compared with 55+/−4 axons in injured vehicle-treated mice and 71+/−4 axons in 4-AP treated mice (p<0.01 for vehicle-treated vs. 4-AP treated mice).

[1] = mice, localized 4-AP (PLGA films)

With `Nc1ccncc1` [4-AP, 4-aminopyridine] as the molecule, how does the “myelinated axons with a g^area-ratio less than the average for uninjured mice” value (21 days after injury) read?
The value was 54.4+/−18.5%.

What about the “average g^area-ratio (area of the axon to area of the axon plus associated myelin)” value (mice, 21 days after injury, local 4-AP treatment) of the same molecule?
Its value is 0.43+/−0.09.

And the “number of total myelinated axons per TEM grid examined (2310 μm^2)” value (mice, 21 days post injury)?
The value was 71+/−4 axons.

And the “axons with myelin thickness above the average for uninjured nerve” value (mice, day 21, localized 4-AP (PLGA films))?
The value was 21.4+/−10.8%.

What about the “average thickness of the myelin within the injured area” value (mice, day 21 after injury, localized 4-AP (PLGA films)) of the same molecule?
Its value is 0.95+/−0.14 μm.

What about the “average cross-sectional area of myelin per myelinated large axon” value [1] of the same molecule?
The value was 10.1+/−0.7 μm^2.

What about the “axons with myelin areas above the average for uninjured nerve” value [1] of the same molecule?
The value was 21.2+/−9.3%.
